Measured values from patent US6034062A, “Bone morphogenetic protein (BMP)-9 compositions and their uses” (Genetics Institute, Inc., priority 1997, dated 2000).

Assays:
IMCD-3 cells = assay: IMCD-3 cell condensation and tubulogenesis in collagen matrix; assay type: cell-based; settings: IMCD-3 cells in 3-dimensional collagen gel, 100 ng/ml, 6 days, serum-free
Procedure: Several cell lines are tested for BMP-9 responsiveness in vitro. Cell proliferation, as indicated by [^3 H]thymidine incorporation, is determined in cell lines derived from kidney and lung. Cell proliferation is determined by measuring [^3 H]thymidine incorporation in subconfluent cells treated for 24 h with or without growth factors. NRK-52E (ATCC CRL 1571), WI-38 (ATCC CCL-75), CCD-11Lu (ATCC CCL-202), CCD-16Lu (ATCC CCL-204), and A-549 (ATCC CCL-185) cell lines are placed at 10^4 cells/well in 96 well plates and assayed for [^3 H]thymidine incorporation as described above. IMCD-3 cells (ATCC #CRL-2123) are cultured in a collagen matrix as described by Barros et al., PNAS USA 92:4412-4416 (1995), and treated with growth factors for 6 days to allow tubule formation.
In contrast, BMP-9 appeared to stimulate proliferation in several fibroblast cell lines derived from lung. […] The effect of rhBMP-9 on tubulogenesis was examined in IMCD-3 cells, another epithelial kidney cell line. […] It is therefore contemplated that both lung and kidney cells are physiological targets for BMP-9.

[1] = test system: BMP-9 receptors expressed on HepG2 cells; assay: 125I-BMP-9 binding to HepG2 cells; settings: HepG2 cells, 125I-BMP-9 and 250-fold excess of unlabeled ligand
Procedure: BMP-9 responsiveness in parenchymal liver cells is tested by screening four liver cell lines for their ability to bind iodinated, CHO-derived BMP-9. […] Specific binding of BMP-9 to HepG2 cells is carried out by incubating HepG2 cells grown to confluence in Dulbecco's Modified Eagle's Medium (DME) containing 10% heat-inactivated fetal calf serum (FCS) on gelatinized 6 well plates with 2 ng/ml ^125 I-BMP-9 and increasing concentrations of unlabelled BMP-9 in binding buffer (136.9 mM NaCl, 5.37 mM KCl, 1.26 mM CaCl2, 0.64 mM MgSO4, 0.34 mM Na2 HPO4, 0.44 mM KH2 PO4, 0.49 mM MgCl2, 25 mM HEPES and 0.5% BSA, pH 7.4) for 20 hours at 4° C. to achieve binding equilibrium. This incubation follows a one hour preincubation at 37° C. in binding buffer alone. For crosslinking experiments, the cells were incubated with 500 μM disuccinimidyl suberate for 20 minutes at […] following binding. Cell extracts were analyzed on SDS-PAGE. […] To test the binding specificity of the receptors for BMP-9, HepG2 cells were incubated with ^125 I-BMP-9 and a 250-fold excess of different unlabeled ligands.

primary rat hepatocytes = assay: Primary rat hepatocyte 3H-thymidine incorporation; assay type: cell-based; settings: subconfluent primary rat hepatocytes, 36 hours, serum-free
Procedure: As a first indication of BMP-9 effects on confluent, serum starved HepG2 cells, cell proliferation is examined as determined by ^3 H-thymidine incorporation and cell counting. HepG2 cells are plated at […] in 96 well plates and cultured for 48 hours in DME/0.1% FCS to synchronize the cell cycle are treated for 24 hours with or without BMP-9 in the presence of 0.1% FCS. In ^3 H-thymidine incorporation assays, ^3 H-thymidine was included during the last 4 hours of treatment and cellular DNA was collected with a 96 well plate cell harvester. Proliferation was assayed by quantifying ethanol-precipitable ^3 H-thymidine incorporation by liquid scintillation counting. For cell counting assays, cells were trypsinized and counted with a hemacytometer. […] BMP-9 stimulates ^3 H-thymidine incorporation in HepG2 cells approximately five fold.
To determine if this proliferative effect of BMP-9 was unique to the HepG2 liver tumor cell line, primary rat hepatocytes were tested for effects of BMP-9 on ^3 H-thymidine incorporated as shown in FIG. 4.

[2] = test system: Articular cartilage explants from calf carpal joints; assay: Articular cartilage assay (proteoglycan synthesis, sulfate incorporation); assay type: cell-based; settings: 100 ng/ml, calf articular cartilage explants
Procedure: The effect of BMP-9 on articular cartilage proteoglycan and DNA synthesis is assayed to determine if BMP-9 is involved in the regulation of metabolism of differentiated articular cartilage.
Articular cartilage explants from calf carpal joints are maintained in DMEM with 50 μg/ml ascorbate, 4 mM glutamine and antibiotics for 3 days. Cytokines (rhBMP-2, rhBMP-4, rhBMP-6 and rhBMP-9, IGF-1, bFGF (1-1000 ng/ml), and TGFβ (1-100 ng/ml)) are added to the medium and culture is continued for 3 more days. Medium is changed daily. Twenty-four hours prior to harvest, explants are pulsed with 50 μCi/ml ^35 SO4 or 25 μCi/ml ^3 H-thymidine. Explants are solubilized and separation of free isotope is performed by gel chromatography. Total DNA of each explant is measured by a spectrophotometric assay.

rhHGF: recombinant human HGF, inducer of tubulogenesis in IMCD-3 cells
cell condensation and tubulogenesis (IMCD-3 cells): induced a marked branching tubulogenesis

TGF-β1: transforming growth factor β1
crossreactivity of BMP-9 receptors with unlabeled ligand [1]: no crossreactivity
3H-thymidine incorporation (primary rat hepatocytes): inhibitory, not stimulatory

EGF: epidermal growth factor (NSDSECPLSHDGYCLHDGVCMYIEALDKYACNCVVGYIGERCQYRDLKWWELR; UniProt P01133 971-1023, looked up)
3H-thymidine incorporation (primary rat hepatocytes): markedly

TGFβ
proteoglycan synthesis [2]: significantly more active in stimulating proteoglycan synthesis
